From publication PMC6102074 (European journal of medicinal chemistry, 2018)
Values after ≈ are worked out from the molar mass of the structure shown.

How the values were obtained:
[1] = after 60 minutes
[2] = kinetic solubility analysis in PBS solution; format: physicochemical
VEGF = details: human monocyte leukemia cells (THP1); previously reported, ref [9], [17]; cited from earlier work
rat microsome stability = details: microsomes
[3] = Pion's μSOL assay for kinetic solubility; format: physicochemical

3-(Cyclohexanecarboxamido)-N-(3-(trifluoromethyl)phenyl)-benzamide [Compound 3]
parent remaining in mouse liver microsomes [1]: 70%

CCOc1ccccc1C(=O)Nc1ccccc1C(=O)Nc1cccc(S(=O)(=O)C(F)(F)F)c1 [Compound 63, 2-Ethoxy-N-(2-((3-((trifluoromethyl)sulfonyl)phenyl)carbamoyl)phenyl)benzamide]
solubility [2]: < 1.1 µM

CC(C)Oc1ccccc1C(=O)Nc1ccccc1C(=O)Nc1cccc(S(=O)(=O)C(F)(F)F)c1 [Compound 65, 2-Isopropoxy-N-(2-(3-(trifluoromethylsulfonyl)phenylcarbamoyl)phenyl)benzamide]
activation of VEGF transcription (VEGF): activate the transcription | half-life (rat microsome stability): 28.2 min

CCOc1ccccc1C(=O)Nc1ncccc1C(=O)Nc1cccc(S(=O)(=O)C(F)(F)F)c1 [Compound 49, 2-(2-Ethoxybenzamido)-N-(3-((trifluoromethyl)sulfonyl)phenyl)nicotinamide]
solubility [3]: < 1 µM

O=C(Nc1ccccc1C(=O)Nc1ccccc1C(=O)NCc1ccco1)c1ccco1 [Compound 1]
solubility kinetic (physchem): 1.6 µg/mL (≈ 3.73 µM)

CCOc1ccccc1C(=O)Nc1cnccc1C(=O)Nc1cccc(S(=O)(=O)C(F)(F)F)c1 [Compound 50, 3-(2-Ethoxybenzamido)-N-(3-((trifluoromethyl)sulfonyl)phenyl)isonicotinamide]
solubility [3]: < 1 µM
